Laboratory results published in patent EP4818172A1, “ASCORBIC ACID DERIVATIVES AND COSMETIC CONTAINING SAME” (Seiwa Kasei Co., Ltd., priority 2023, dated 2025).

Key:
[1] = test system: Normal human dermal fibroblasts (NHDF); assay: Hyaluronic acid production promoting effect (ELISA of supernatant); type: cell-based; conditions: sample at 10 mM or less in serum-free D-MEM, cultured 48 hours, % of control group (100%), N=3
Method: Normal human dermal fibroblasts (NHDF) were prepared in D-MEM containing 5% (v/v) fetal bovine serum to a cell density of 2.5 × 10^4 cells/well, and then pre-incubated on a 96-well plate for 24 hours. After removing the medium, samples prepared in serum-free D-MEM were added to each well and cultured for 48 hours. After the culture was completed, the amount of hyaluronic acid in the supernatant was quantified by ELISA. Measurements were performed in triplicate (N=3).
(§1) The amount of hyaluronic acid produced when the sample was measured at a concentration of 10 mM or less was compared with that of the control group, and the results (% values when the control group is set to 100%) are shown in Tables 18 to 20 based on the following criteria. • <100%: ± • 100-120%: + • 120%<: ++ [Table 18]

[2] = test system: Normal human epidermal keratinocytes; assay: Antioxidant effect: ROS production inhibition after H2O2 (DCFHDA probe); type: cell-based; conditions: sample at 10 mM or less, 24 hours, then 0.2 mM H2O2 for 2 hours, N=4
Method: Normal human epidermal keratinocytes were seeded onto a 96-well plate using KG2 medium at a cell density of 2.0 × 10^4 cells/well. After 24 hours of pre-incubation, samples adjusted to a predetermined concentration in KG2 medium were added to each well. After 24 hours of incubation, the medium was removed, followed by washing with HBSS(-) and the incorporation of the ROS-reactive fluorescent probe DCFHDA for 30 minutes. The cells were again washed with HBSS(-), treated with 0.2 mM H2O2, and incubated for 2 hours. The fluorescence intensity was measured, and the amount of ROS produced per unit protein was calculated by dividing the fluorescence intensity by the amount of protein quantified by the BCA method, resulting in an analytical value of 1. Furthermore, the amount of ROS production calculated without adding the sample adjusted to a predetermined concentration using the above test method was set to analytical value 2; and the amount of ROS production calculated without adding the sample or 0.2 mM H2O2 was set to analytical value 3.
ROS production inhibition rate (%) was calculated using the following formula. The higher the ROS production inhibition rate, the greater the antioxidant effect can be evaluated to be.
ROS production inhibition rate (%) = [(analysis value 2) - (analysis value 1)] / [(analysis value 2) - (analysis value 3)] × 100
The ROS production inhibition rate when the sample was measured at a concentration of 10 mM or less was evaluated as follows. Note that the measurement was performed in N=4. • <20%: + • 20-40%: ++ • 40%<: +++ [Table 21]

[3] = test system: Normal human dermal fibroblasts; assay: Collagen production promoting effect (ELISA of free collagen in supernatant); type: cell-based; conditions: sample at 10 mM or less, cultured 48 hours, % of control group (100%), N=3
Method: Normal human dermal fibroblasts were prepared in D-MEM containing 5% (v/v) fetal bovine serum to a cell density of 2.5 × 10^4 cell s /well, and then pre-incubated for 24 hours on a 96-well plate. After removing the medium, samples prepared to a predetermined concentration in D-MEM containing 5% (v/v) fetal bovine serum were added to each well and cultured for 48 hours. After the culture was completed, the amount of free collagen in the supernatant was quantified by ELISA. Measurements were performed in triplicate (N=3).
as §1, with “collagen” for “hyaluronic acid”, “was” for “is”, “Table 17” for “Tables 18 to 20”, “100-140%:” for “100-120%:”, “140%<:” for “120%<:”, “17]” for “18]”

[4] = Stability test -1: residual rate of 1% aqueous solutions at pH 3 to 9 on storage; type: physicochemical; conditions: 1% aqueous solution
[5] = Stability test -1: odor and coloration scored by 10 panelists; type: physicochemical; conditions: Test Example 1, aqueous solution, total score of 10 panelists
Method: For each of the samples of Synthesis Examples 1 to 6, 1% aqueous solutions were adjusted to pH 3, 5, 7, 8, and 9 with a dilute potassium hydroxide aqueous solution, and then placed in 50 mL screw tubes and • 2: Color changes compared to immediately after preparation. • 1: Strongly colored compared to immediately after preparation. Based on the results of the above evaluation, the following classification was made: • ○: Total score of 10 panelists is 25 or more • △: Total score of 10 panelists is 16-24 • ×: The total score of 10 panelists is 15 or less [Table 10]

Row | SMILES | Residual Rate After 2 weeks ([4]; pH3, stored at 50°C) | Residual Rate After 4 weeks ([4]; pH3, stored at 50°C) | Residual Rate After 2 weeks ([4]; pH5, stored at 50°C) | Residual Rate After 4 weeks ([4]; pH5, stored at 50°C) | Residual Rate After 2 weeks ([4]; pH7, stored at 50°C) | Residual Rate After 4 weeks ([4]; pH7, stored at 50°C) | Residual Rate After 2 weeks ([4]; pH8, stored at 50°C) | Residual Rate After 4 weeks ([4]; pH8, stored at 50°C) | Residual Rate After 2 weeks ([4]; pH9, stored at 50°C) | Residual Rate After 4 weeks ([4]; pH9, stored at 50°C) | Hyaluronic acid production-promoting effect [1] | Antioxidant effect (ROS production inhibition rate) [2] | Collagen production-promoting effect [3] | Coloration After 2 weeks [5] | Odor After 2 weeks [5] | Coloration After 4 weeks [5] | Odor After 4 weeks [5]
1 | O=C1OC2C(O)COC23OCCCCOC13 (stereo not shown) [synthesis Example 33, 4-hydroxy-2,6,9,14-tetraoxatricyclo [6.6.0.0^1.5] tetradecan-7-one] | – | – | – | – | – | – | – | – | – | – | + (100-120%) | ++ (20-40%) | – | – | – | – | –
2 | O=C1OC2C(O)COC23OCCCOC13 (stereo not shown) [synthesis Example 34, 4-hydroxy-2,6,9,13-tetraoxatricyclo [6.5.0.0^1.5] tridecan-7-one] | – | – | – | – | – | – | – | – | – | – | + (100-120%) | ++ (20-40%) | – | – | – | – | –
3 | O=C1OC(C(O)CO)C2=C1OCCCO2 (stereo not shown) [synthesis example 2, 2,3-O-(1,3-propanediyl) ascorbic acid] | ⊚ | ⊚ | ⊚ | ⊚ | ⊚ | ⊚ | ⊚ | ○ | ○ | Δ | ++ (120%<) | – | ++ (140%<) | ○ (Total score of 10 panelists is 25 or more) | ○ (Total score of 10 panelists is 25 or more) | ○ (Total score of 10 panelists is 25 or more) | Δ
4 | O=C1OC(C(O)CO)C2=C1OCCCCO2 (stereo not shown) [synthesis example 3, 2,3-O-(1,4-butanediyl) ascorbic acid] | ⊚ | ⊚ | ⊚ | ⊚ | ⊚ | ⊚ | ⊚ | ○ | ○ | Δ | + (100-120%) | – | + (100-140%) | ○ (Total score of 10 panelists is 25 or more) | ○ (Total score of 10 panelists is 25 or more) | ○ (Total score of 10 panelists is 25 or more) | ○ (Total score of 10 panelists is 25 or more)
5 | O=C1OC(C(O)CO)C2=C1OCC1(COC1)CO2 (stereo not shown) [synthesis example 6, 2,3-O-(3,3-dimethyleneoxetane) ascorbic acid] | ⊚ | ⊚ | ⊚ | ⊚ | ○ | ○ | ○ | Δ | ○ | Δ | ++ (120%<) | – | ++ (140%<) | ○ (Total score of 10 panelists is 25 or more) | ○ (Total score of 10 panelists is 25 or more) | ○ (Total score of 10 panelists is 25 or more) | ○ (Total score of 10 panelists is 25 or more)

Further lines, with some results ahead:

Row | Residual Rate After 2 weeks ([4]; pH3, stored at 50°C) | Residual Rate After 4 weeks ([4]; pH3, stored at 50°C) | Residual Rate After 2 weeks ([4]; pH5, stored at 50°C) | Residual Rate After 4 weeks ([4]; pH5, stored at 50°C) | Residual Rate After 2 weeks ([4]; pH7, stored at 50°C) | Residual Rate After 4 weeks ([4]; pH7, stored at 50°C) | Residual Rate After 2 weeks ([4]; pH8, stored at 50°C) | Residual Rate After 4 weeks ([4]; pH8, stored at 50°C) | Residual Rate After 2 weeks ([4]; pH9, stored at 50°C) | Residual Rate After 4 weeks ([4]; pH9, stored at 50°C) | SMILES | Hyaluronic acid production-promoting effect [1] | Antioxidant effect (ROS production inhibition rate) [2] | Collagen production-promoting effect [3] | Coloration After 2 weeks [5] | Odor After 2 weeks [5] | Coloration After 4 weeks [5] | Odor After 4 weeks [5]
6 | ⊚ | ⊚ | ⊚ | ⊚ | ○ | Δ | Δ | × | × | × | O=C1OC(C(O)CO)C2=C1OCCO2 (stereo not shown) [synthesis example 1, 2,3-O-(1,2-ethanediyl) ascorbic acid] | + (100-120%) | – | + (100-140%) | ○ (Total score of 10 panelists is 25 or more) | ○ (Total score of 10 panelists is 25 or more) | Δ | ○ (Total score of 10 panelists is 25 or more)
7 | ⊚ | ⊚ | ⊚ | ⊚ | ○ | ○ | ○ | Δ | ○ | Δ | O=C1OC(C(O)CO)C2=C1OCC(O)CO2 (stereo not shown) [synthesis example 4, 2,3-O-(2-hydroxypropane-1,3-diyl) ascorbic acid] | ++ (120%<) | – | + (100-140%) | ○ (Total score of 10 panelists is 25 or more) | ○ (Total score of 10 panelists is 25 or more) | ○ (Total score of 10 panelists is 25 or more) | ○ (Total score of 10 panelists is 25 or more)
8 | ⊚ | ⊚ | ⊚ | ⊚ | ○ | Δ | ○ | Δ | ○ | Δ | O=C1OC(C(O)CO)C2=C1OC(CO)CO2 (stereo not shown) [synthesis example 5, 2,3-O-(1-hydroxymethyl-1,2-ethanediyl) ascorbic acid] | + (100-120%) | – | + (100-140%) | ○ (Total score of 10 panelists is 25 or more) | ○ (Total score of 10 panelists is 25 or more) | ○ (Total score of 10 panelists is 25 or more) | ○ (Total score of 10 panelists is 25 or more)
